US20250382344A1, “Soluble GLP1/GIP/NPY2 Receptor Triple Agonists” (Boehringer Ingelheim International GmH, priority 2024, published 2025)
Like-named read-outs stand apart in the source and are kept apart here.

Key:
hGIPR = biological target: T1, hGIPR (Homo sapiens, UniProt P48546); experiment: hGIPR CreLuc assay in 0.5% and 100% plasma (CHO CRE-luciferase reporter cells); format: cell-based
T1 construct: expressed in transfected cells; host or cells: CHO CRE-luciferase reporter cells
T1 sequence (P48546 22-466): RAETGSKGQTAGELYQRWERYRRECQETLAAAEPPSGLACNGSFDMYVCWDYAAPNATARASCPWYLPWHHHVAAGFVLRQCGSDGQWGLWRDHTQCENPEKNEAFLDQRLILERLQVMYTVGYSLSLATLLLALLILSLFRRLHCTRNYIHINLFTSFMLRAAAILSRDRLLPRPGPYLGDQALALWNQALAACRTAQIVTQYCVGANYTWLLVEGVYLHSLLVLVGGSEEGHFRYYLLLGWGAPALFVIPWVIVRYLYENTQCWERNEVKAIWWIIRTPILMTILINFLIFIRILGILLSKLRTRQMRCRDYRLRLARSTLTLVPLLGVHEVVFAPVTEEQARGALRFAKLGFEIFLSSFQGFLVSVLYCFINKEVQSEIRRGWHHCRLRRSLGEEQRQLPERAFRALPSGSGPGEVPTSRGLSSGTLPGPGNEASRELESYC

[1] = Solubility in 0.1 M phosphate buffer at pH 7; format: physicochemical; conditions: 0.1 M phosphate buffer at pH 7, 10 mg/mL final peptide concentration, shaking 2 hours at room temperature, peptides as TFA-salts, measured sample pH 6.5-7.0
[2] = 0.5% human plasma, read-out: hGIPR 0.5% hP
[3] = 100% human plasma, read-out: hGIPR 100% hP

Compound	EC50 (hGIPR; [2])	solubility at 2 h [1]	EC50 (hGIPR; [3])	solubility ([1]; read-out: Solubility)
CC[C@H](C)[C@H](NC(=O)[C@H](CC(C)C)NC(=O)[C@H](Cc1c[nH]cn1)NC(=O)[C@H](CCCNC(=N)N)NC(=O)[C@@H](NC(=O)[C@H](Cc1ccccc1)NC(=O)[C@H](C)NC(=O)C(C)(C)NC(=O)[C@H](Cc1ccc(O)cc1)NC(=O)[C@H](C)NC(=O)[C@H](CCC(N)=O)NC(=O)[C@H](CCCCN)NC(=O)[C@H](CCC(=O)O)NC(=O)[C@H](CC(C)C)NC(=O)C(C)(C)NC(=O)[C@@H](NC(=O)[C@H](CO)NC(=O)[C@H](Cc1ccc(O)cc1)NC(=O)[C@H](CC(=O)O)NC(=O)[C@H](CO)NC(=O)[C@@H](NC(=O)[C@H](Cc1ccccc1)NC(=O)[C@@H](NC(=O)CNC(=O)[C@H](CCC(=O)O)NC(=O)C(C)(C)NC(=O)[C@@H](N)Cc1ccc(O)cc1)[C@@H](C)O)[C@@H](C)O)[C@@H](C)CC)C(C)C)C(=O)N[C@@H](CC(N)=O)C(=O)N[C@@H](CCCCNC(=O)[C@@H](N)CCCCNC(=O)CC[C@H](NC(=O)CC[C@H](NC(=O)CC[C@H](NC(=O)CC[C@H](NC(=O)CC[C@H](NC(=O)CC[C@H](NC(=O)CCCCCCCCCCCCCCCCC(=O)O)C(=O)O)C(=O)O)C(=O)O)C(=O)O)C(=O)O)C(=O)O)C(=O)NC(C)(C)C(=O)N[C@H](C(=O)N[C@@H](CCCNC(=N)N)C(=O)N[C@@H](CCC(N)=O)C(=O)N[C@@H](CCCNC(=N)N)C(=O)N[C@@H](Cc1ccc(O)cc1)C(N)=O)[C@@H](C)O [Compound 84, Y-Aib-E-G-T-F-T-S-D-Y-S-I-Aib-L-E-K-Q-A-Y-Aib-A-F-V-R-H-L-I-N-K(1,3)-Aib-T-R-Q-R-Y-NH2.C18DA-gGlu-gGlu-gGlu-gGlu-gGlu-gGlu-eLys(1,2)]	5 nM	4100 µg/mL		
CC[C@H](C)[C@H](NC(=O)[C@H](CC(C)C)NC(=O)[C@H](Cc1c[nH]cn1)NC(=O)[C@H](CCCNC(=N)N)NC(=O)[C@@H](NC(=O)[C@H](Cc1ccccc1)NC(=O)[C@H](C)NC(=O)C(C)(C)NC(=O)[C@H](CCC(N)=O)NC(=O)[C@H](CCCNC(=N)N)NC(=O)[C@H](CCC(N)=O)NC(=O)[C@H](CCCCN)NC(=O)[C@H](CCC(=O)O)NC(=O)[C@H](CC(C)C)NC(=O)C(C)(C)NC(=O)[C@@H](NC(=O)[C@H](CO)NC(=O)[C@H](Cc1ccc(O)cc1)NC(=O)[C@H](CC(=O)O)NC(=O)[C@H](CO)NC(=O)[C@@H](NC(=O)[C@H](Cc1ccccc1)NC(=O)[C@@H](NC(=O)CNC(=O)[C@H](CCC(=O)O)NC(=O)C(C)(C)NC(=O)[C@@H](N)Cc1ccc(O)cc1)[C@@H](C)O)[C@@H](C)O)[C@@H](C)CC)C(C)C)C(=O)N[C@@H](CC(N)=O)C(=O)N[C@@H](CCCCNC(=O)[C@@H](N)CCCCNC(=O)CC[C@H](NC(=O)CC[C@H](NC(=O)CC[C@H](NC(=O)CC[C@H](NC(=O)CC[C@H](NC(=O)CC[C@H](NC(=O)CCCCCCCCCCCCCCCCC(=O)O)C(=O)O)C(=O)O)C(=O)O)C(=O)O)C(=O)O)C(=O)O)C(=O)NC(C)(C)C(=O)N[C@H](C(=O)N[C@@H](CCCNC(=N)N)C(=O)N[C@@H](CCC(N)=O)C(=O)N[C@@H](CCCNC(=N)N)C(=O)N[C@@H](Cc1ccc(O)cc1)C(N)=O)[C@@H](C)O [Compound 91, Y-Aib-E-G-T-F-T-S-D-Y-S-I-Aib-L-E-K-Q-R-Q-Aib-A-F-V-R-H-L-I-N-K(1,3)-Aib-T-R-Q-R-Y-NH2.C18DA-gGlu-gGlu-gGlu-gGlu-gGlu-Glu-eLys(1,2)]	0.8 nM		14.4 nM	2200 µg/mL

Now those with a lower EC50 (hGIPR; [2]), led by results:

EC50 (hGIPR; [2])	solubility at 2 h [1]	EC50 (hGIPR; [3])	solubility ([1]; read-out: Solubility)	Compound
0.3 nM	9000 µg/mL			CC[C@H](C)[C@H](NC(=O)[C@H](CC(C)C)NC(=O)[C@H](Cc1c[nH]cn1)NC(=O)[C@H](CCCNC(=N)N)NC(=O)[C@@H](NC(=O)[C@H](Cc1ccccc1)NC(=O)[C@H](C)NC(=O)C(C)(C)NC(=O)[C@H](CCC(N)=O)NC(=O)[C@H](C)NC(=O)[C@H](CCC(N)=O)NC(=O)[C@H](CCCCN)NC(=O)[C@H](CCC(=O)O)NC(=O)[C@H](CC(C)C)NC(=O)C(C)(C)NC(=O)[C@@H](NC(=O)[C@H](CO)NC(=O)[C@H](Cc1ccc(O)cc1)NC(=O)[C@H](CC(=O)O)NC(=O)[C@H](CO)NC(=O)[C@@H](NC(=O)[C@H](Cc1ccccc1)NC(=O)[C@@H](NC(=O)CNC(=O)[C@H](CCC(=O)O)NC(=O)C(C)(C)NC(=O)[C@@H](N)Cc1ccc(O)cc1)[C@@H](C)O)[C@@H](C)O)[C@@H](C)CC)C(C)C)C(=O)N[C@@H](CC(N)=O)C(=O)N[C@@H](CCCCNC(=O)CC[C@H](NC(=O)[C@@H](N)CCCCNC(=O)CC[C@H](NC(=O)CC[C@H](NC(=O)CC[C@H](NC(=O)CC[C@H](NC(=O)CC[C@H](NC(=O)CCCCCCCCCCCCCCCCCCC(=O)O)C(=O)O)C(=O)O)C(=O)O)C(=O)O)C(=O)O)C(=O)O)C(=O)NC(C)(C)C(=O)N[C@H](C(=O)N[C@@H](CCCNC(=N)N)C(=O)N[C@@H](CCC(N)=O)C(=O)N[C@@H](CCCNC(=N)N)C(=O)N[C@@H](Cc1ccc(O)cc1)C(N)=O)[C@@H](C)O [Compound 94, Y-Aib-E-G-T-F-T-S-D-Y-S-I-Aib-L-E-K-Q-A-Q-Aib-A-F-V-R-H-L-I-N-K(1,3)-Aib-T-R-Q-R-Y-NH2.C20DA-gGlu-gGlu-gGlu-gGlu-gGlu-eLys-gGlu(1,2)]
0.3 nM	4300 µg/mL			CC[C@H](C)[C@H](NC(=O)[C@H](CC(C)C)NC(=O)[C@H](Cc1c[nH]cn1)NC(=O)[C@H](CCCNC(=N)N)NC(=O)[C@@H](NC(=O)[C@H](Cc1ccccc1)NC(=O)[C@H](C)NC(=O)C(C)(C)NC(=O)[C@H](CCC(N)=O)NC(=O)[C@H](C)NC(=O)[C@H](CCC(N)=O)NC(=O)[C@H](C)NC(=O)[C@H](CCC(=O)O)NC(=O)[C@H](CC(C)C)NC(=O)C(C)(C)NC(=O)[C@@H](NC(=O)[C@H](CO)NC(=O)[C@H](Cc1ccc(O)cc1)NC(=O)[C@H](CC(=O)O)NC(=O)[C@H](CO)NC(=O)[C@@H](NC(=O)[C@H](Cc1ccccc1)NC(=O)[C@@H](NC(=O)CNC(=O)[C@H](CCC(=O)O)NC(=O)C(C)(C)NC(=O)[C@@H](N)Cc1ccc(O)cc1)[C@@H](C)O)[C@@H](C)O)[C@@H](C)CC)C(C)C)C(=O)N[C@@H](CC(N)=O)C(=O)N[C@@H](CCCCNC(=O)[C@@H](N)CCCCNC(=O)CC[C@H](NC(=O)CC[C@H](NC(=O)CC[C@H](NC(=O)CC[C@H](NC(=O)CC[C@H](NC(=O)CC[C@H](NC(=O)CCCCCCCCCCCCCCCCC(=O)O)C(=O)O)C(=O)O)C(=O)O)C(=O)O)C(=O)O)C(=O)O)C(=O)NC(C)(C)C(=O)N[C@H](C(=O)N[C@@H](CCCNC(=N)N)C(=O)N[C@@H](CCC(N)=O)C(=O)N[C@@H](CCCNC(=N)N)C(=O)N[C@@H](Cc1ccc(O)cc1)C(N)=O)[C@@H](C)O [Compound 123, Y-Aib-E-G-T-F-T-S-D-Y-S-I-Aib-L-E-A-Q-A-Q-Aib-A-F-V-R-H-L-I-N-K(1,3)-Aib-T-R-Q-R-Y-NH2.C18DA-gGlu-gGlu-gGlu-gGlu-gGlu-gGlu-eLys(1,2)]
0.3 nM	4200 µg/mL	3.4 nM		CC[C@H](C)[C@H](NC(=O)[C@H](CC(C)C)NC(=O)[C@H](Cc1c[nH]cn1)NC(=O)[C@H](CCCNC(=N)N)NC(=O)[C@@H](NC(=O)[C@H](Cc1ccccc1)NC(=O)[C@H](C)NC(=O)C(C)(C)NC(=O)[C@H](CCC(N)=O)NC(=O)[C@H](C)NC(=O)[C@H](CCC(N)=O)NC(=O)[C@H](CCCCN)NC(=O)[C@H](CCC(=O)O)NC(=O)[C@H](CC(C)C)NC(=O)C(C)(C)NC(=O)[C@@H](NC(=O)[C@H](CO)NC(=O)[C@H](Cc1ccc(O)cc1)NC(=O)[C@H](CC(=O)O)NC(=O)[C@H](CO)NC(=O)[C@@H](NC(=O)[C@H](Cc1ccccc1)NC(=O)[C@@H](NC(=O)CNC(=O)[C@H](CCC(=O)O)NC(=O)C(C)(C)NC(=O)[C@@H](N)Cc1ccc(O)cc1)[C@@H](C)O)[C@@H](C)O)[C@@H](C)CC)C(C)C)C(=O)N[C@@H](CC(N)=O)C(=O)N[C@@H](CCCCNC(=O)CC[C@H](NC(=O)CC[C@H](NC(=O)CC[C@H](NC(=O)CC[C@H](NC(=O)CC[C@H](NC(=O)CC[C@H](NC(=O)[C@H]1CC[C@H](CNC(=O)CCCCCCCCCCCCCCCCCCC(=O)O)CC1)C(=O)O)C(=O)O)C(=O)O)C(=O)O)C(=O)O)C(=O)O)C(=O)NC(C)(C)C(=O)N[C@H](C(=O)N[C@@H](CCCNC(=N)N)C(=O)N[C@@H](CCC(N)=O)C(=O)N[C@@H](CCCNC(=N)N)C(=O)N[C@@H](Cc1ccc(O)cc1)C(N)=O)[C@@H](C)O [Compound 133, Y-Aib-E-G-T-F-T-S-D-Y-S-I-Aib-L-E-K-Q-A-Q-Aib-A-F-V-R-H-L-I-N-K(1,3)-Aib-T-R-Q-R-Y-NH2.C20DA-TRX-gGlu-gGlu-gGlu-gGlu-gGlu-gGlu(1,2)]
